From PMC5888870 (2018)
Values belong to the compound of their own block, whether it stands above or below them.

What was measured:
[1] = system: 5'-biotin-TEG KRAS (DNA, G4) AGGGCGGTGTGGGAAGAGGGAAGAGGGGGAGGCAG; experiment: SPR; settings: 30 mM KCl; 10 mM Tris pH 6.6, 3% DMSO, 0.01% Tween-20; no binding at 20 μM
[2] = system: KRAS G4 (DNA, G4) AGGGCGGTGTGGGAAGAGGGAAGAGGGGGAGGCAG; experiment: CD thermal melt; settings: 30 mM KCl; 10 mM Tris pH 6.6, 1% DMSO; 10 μM DNA, 40 μM compound
[3] = system: shortened KRAS oligonucleotide (DNA, G4) AGGGCGGTGTGGGAATAGGGAA; experiment: 1H NMR titration; settings: 50 mM KCl, 100 μM DNA
[4] = system: Alexafluor647-KRAS (DNA, G4) AGGGCGGTGTGGGAAGAGGGAAGAGGGGGAGGCAG; experiment: fluorescence intensity titration; settings: 50 mM KCl, 25 mM Tris pH 6.4, 2-3% DMSO, room temperature; for KDapp: apparent
[5] = system: 5'-biotin-TEG KRAS (DNA, G4) AGGGCGGTGTGGGAAGAGGGAAGAGGGGGAGGCAG; experiment: SPR, steady state; settings: 30 mM KCl; 10 mM Tris pH 6.6, 3% DMSO, 0.01% Tween-20; apparent; text b35 prints 12.0 ± 0.5
[6] = system: shortened KRAS oligonucleotide (DNA, G4) AGGGCGGTGTGGGAATAGGGAA; experiment: WaterLOGSY NMR; settings: 50 mM KCl, 25 mM Tris-d11 pH 6.6, 10% DMSO-d6, 293 K, 100 μM compound, 1 μM DNA
[7] = system: KRAS G4 (DNA, G4) AGGGCGGTGTGGGAAGAGGGAAGAGGGGGAGGCAG; experiment: 13C NMR; settings: 50 mM KCl; 25 mM Tris-d11 pH 6.6, 10% DMSO-d6, 293 K
[8] = system: dsDNA (DNA, duplex) CAATCGGATCGAATTCGATCCGATTG; experiment: CD thermal melt; settings: 30 mM KCl; 10 mM Tris pH 6.6, 1% DMSO; 10 μM DNA, 40 μM compound
[9] = system: 5'-biotin-TEG KRAS (DNA, G4) AGGGCGGTGTGGGAAGAGGGAAGAGGGGGAGGCAG; experiment: SPR, Langmuir kinetic fit; settings: 30 mM KCl; 10 mM Tris pH 6.6, 3% DMSO, 0.01% Tween-20
[10] = system: Alexafluor647-KRAS (DNA, G4) AGGGCGGTGTGGGAAGAGGGAAGAGGGGGAGGCAG; experiment: small molecule microarray; settings: 100 mM KCl; PBST, room temperature, 500 nM DNA; immobilised compound
[11] = system: Alexafluor647-AKTIP (RNA, G4) GGGGUGGGGCGGGGCGGGG; experiment: small molecule microarray; settings: 100 mM KCl; PBST, room temperature, 500 nM RNA; immobilised compound
[12] = system: Alexafluor647-BCl2 (DNA, G4) AGGGGCGGGCGCGGGAGGAAGGGGGCGGGA; experiment: small molecule microarray; settings: 100 mM KCl; PBST, room temperature, 500 nM DNA; immobilised compound
[13] = system: Alexafluor647-MYC (DNA, G4) AGGGTGGGGAGGGTGGGG; experiment: small molecule microarray; settings: 100 mM KCl; PBST, room temperature, 500 nM DNA; immobilised compound
[14] = system: Alexafluor647-MYB (DNA, G4) GGAGGAGGAGGTCACGGAGGAGGAGGAGAAGGAGGAGGAGGA; experiment: small molecule microarray; settings: 100 mM KCl; PBST, room temperature, 500 nM DNA; immobilised compound
[15] = system: Alexafluor647-RB1 (DNA, G4) CGGGGGGTTTTGGGCGGC; experiment: small molecule microarray; settings: 100 mM KCl; PBST, room temperature, 500 nM DNA; immobilised compound
[16] = system: Alexafluor647-VEGF (DNA, G4) CGGGGCGGGCCGGGGGCGGGGT; experiment: small molecule microarray; settings: 100 mM KCl; PBST, room temperature, 500 nM DNA; immobilised compound
[17] = system: Alexafluor647-c-KIT (DNA, G4) AGGGAGGGCGCTGGGAGGAGGG; experiment: small molecule microarray; settings: 100 mM KCl; PBST, room temperature, 500 nM DNA; immobilised compound

- KD [1]: > 20 µM
- ΔTm [2]: < 1 °C
- binding ([3]; 25 mM Tris-d11 pH 6.6, 10% DMSO-d6, 293 K, weak, nonspecific): weak
- KDapp ([4]; only minimal fluorescence changes): > 200 µM
Structure (SMILES): CC(C)NC(=N)NC(=N)Nc1ccc(Cl)cc1

- ΔTm [2]: 7.1 ± 0.6 °C
- binding ([3]; 25 mM Tris-d11 pH 6.6, 10% DMSO-d6, 293 K, moderate, nonspecific): yes
- KDapp [5]: 12.1 ± 0.5 µM
- KDapp ([4]; 50 nM DNA): 19.3 ± 11.0 µM
Structure (SMILES): CCCCC(CC)CNC(=N)NC(=N)NCCCCCCNC(=N)NC(=N)NCC(CC)CCCC (stereo not shown)

- binding ([6]; internal control): no
Structure (SMILES): CN[C@H](C(=O)O)C(C)C

- binding [7]: yes
- binding [6]: yes
- ΔTm [2]: 13.0 ± 0.7 °C
- binding [8]: no
- binding ([3]; 25 mM Tris-d11 pH 6.6, 10% D2O, 5% DMSO-d6, 293 K): yes
- KD [9]: 1.1 ± 0.5 µM
- KD ([4]; 50 nM DNA): 0.0055 ± 0.0029 mM
Structure (SMILES): N=C(NCCCCCCNC(=N)NC(=N)Nc1ccc(Cl)cc1)NC(=N)Nc1ccc(Cl)cc1

- ΔTm [2]: 31.6 ± 2.6 °C
- binding [10]: yes
- binding [11]: yes
- binding [12]: yes
- binding [13]: yes
- binding [14]: yes
- binding [15]: yes
- binding [16]: yes
- binding [17]: yes
Structure (SMILES): NCCOc1cc(C(=O)Nc2cc(OCCN)c3ccccc3n2)nc(C(=O)Nc2cc(OCCN)c3ccccc3n2)c1
